Source: patent US10300106B2, “Autophagy-inducing peptide analogs” (Board of Regents, The University of Texas System, priority 2013, dated 2019)
Non-standard residues stand in square brackets, D forms with d. No end group written: not given here.

System: autophagy (p62 degradation, LC3-I to LC3-II conversion)
Assay: Biochemical autophagy assays: western blot detection of p62 and of the conversion of LC3-I into LC3-II
Type: cell-based
Settings: for Activity (autophagy inducing activity): relative to the wild-type (wt) peptide, all peptides carry the 11 amino acid HIV TAT PTD and diglycine linker
Procedure: Autophagy can be detected directly, indirectly or inferentially by conventional assays, such as disclosed and/or exemplified herein, including biochemically (by assessing the generation of Atg8-PE or LC3-II or the degradation of p62) or microscopically (e.g. by observing the localization pattern of fluorescently tagged Atg8 or LC3).
To further assess the components of the beclin 1 peptide required for autophagy-inducing activity, a series of shorter peptides were developed. Activity was measured by biochemical autophagy assays including western blot detection of p62 (a protein degraded by autophagy) and western blot detection of the conversion of LC3-I into LC3-II (the lipidated autophagosome-associated form of LC3).

[1] = 10 micromolar, western blot, compared to 10 micromolar Tat-Beclin 1 compound

Sequence	Activity (autophagy inducing activity)	LC3-II conversion [1]	p62 degradation [1]
CFNATFEIWHD ({Tat PTD}-GGCFNATFEIWHD) [Mutant 1, HIV TAT PTD-diglycine fusion peptide]	~wt		
DHWIHFTANWV ([dD][dH][dW][dI][dH][dF][dT][dA][dN][dW][dV]; also: fused to TAT PTD via diglycine linker) [Mutant 30, D-retro-inverso counterpart of Mutant 17, with TAT PTD and diglycine linker]	>>wt		
FNATFEIWH (HIV TAT PTD and diglycine linker fused) [Mutant 26, HIV TAT PTD-diglycine fusion peptide]	>>wt		
FNATFEIWHD (HIV TAT PTD and diglycine linker fused) [Mutant 21, HIV TAT PTD-diglycine fusion peptide]	>wt		
VFDATFEIWHD ({Tat PTD}-GGVFDATFEIWHD) [Mutant 3, HIV TAT PTD-diglycine fusion peptide]	<<wt		
VFNACFEIWHD (HIV TAT PTD and diglycine linker fused) [Mutant 5, HIV TAT PTD-diglycine fusion peptide]	<wt		
VFNATFDIWHD (HIV TAT PTD and diglycine linker fused) [Mutant 7, HIV TAT PTD-diglycine fusion peptide]	~wt		
VFNATFEFWHD (HIV TAT PTD and diglycine linker fused) [Mutant 18, HIV TAT PTD-diglycine fusion peptide]	~wt		
VFNATFEIFHD (HIV TAT PTD and diglycine linker fused) [Mutant 9, HIV TAT PTD-diglycine fusion peptide]	~wt		
VFNATFEIWH (HIV TAT PTD and diglycine linker fused) [Mutant 25, HIV TAT PTD-diglycine fusion peptide]	>wt		
VFNATFEIWHD [Wild-type (wt)]	wt	increased LC3-II conversion	increased p62 degradation
VFNATFEIWHE (HIV TAT PTD-diglycine fusion) [Mutant 11, HIV TAT PTD-diglycine fusion peptide]	~wt		
VFNATFEIWYD (HIV TAT PTD-diglycine fusion) [Mutant 10, HIV TAT PTD-diglycine fusion peptide]	~wt		
VFNATFELWHD (HIV TAT PTD and diglycine linker fused) [Mutant 8, HIV TAT PTD-diglycine fusion peptide]	>wt		
VFNATFEMWHD (HIV TAT PTD-diglycine fusion) [Mutant 16, HIV TAT PTD-diglycine fusion peptide]	~wt		
VFNATFERWHD (HIV TAT PTD and diglycine linker fused) [Mutant 20, HIV TAT PTD-diglycine fusion peptide]	~wt		
VFNATFEVWHD (HIV TAT PTD-diglycine fusion) [Mutant 14, HIV TAT PTD-diglycine fusion peptide]	~wt		
VFNATFEYWHD (HIV TAT PTD and diglycine linker fused) [Mutant 19, HIV TAT PTD-diglycine fusion peptide]	~wt		
VFNATWEIWHD (HIV TAT PTD and diglycine linker fused) [Mutant 6, HIV TAT PTD-diglycine fusion peptide]	<wt		
VFNSTFEIWHD ({Tat PTD}-GGVFNSTFEIWHD) [Mutant 4, HIV TAT PTD-diglycine fusion peptide]	<<wt		
VLNATFEIWHD (HIV TAT PTD-diglycine fusion) [Mutant 15, HIV TAT PTD-diglycine fusion peptide]	~wt		
VWNATFEIWHD ({Tat PTD}-GGVWNATFEIWHD) [Mutant 2, HIV TAT PTD-diglycine fusion peptide]	>wt		
VWNATFELWHD (HIV TAT PTD-diglycine fusion) [Mutant 12, HIV TAT PTD-diglycine fusion peptide]	~wt		
VWNATFHIWH (HIV TAT PTD and diglycine linker fused) [Mutant 28, HIV TAT PTD-diglycine fusion peptide]	>>wt		
VWNATFHIWHD (HIV TAT PTD-diglycine fusion) [Mutant 17, HIV TAT PTD-diglycine fusion peptide]	>>wt		
VYNATFEIWHD (HIV TAT PTD-diglycine fusion) [Mutant 13, HIV TAT PTD-diglycine fusion peptide]	<wt		
WNATFHIWH (HIV TAT PTD and diglycine linker fused) [Mutant 27, HIV TAT PTD-diglycine fusion peptide]	>>wt		
WNATFHIWHD (HIV TAT PTD and diglycine linker fused) [Mutant 29, HIV TAT PTD-diglycine fusion peptide]	>>wt		
